Source: patent US20120245137A1 (Zalicus Pharmaceuticals Ltd., priority 2009, published 2012)
pIC50: −log10 of the molar value.

How the values were obtained:
[1] = biological target: human α1H T-type channels (Homo sapiens, UniProt O95180); experiment: T-type calcium channel block, whole cell patch clamp, α1H; assay type: cell-based; settings: HEK cells stably expressing human α1H; mainly non-inactivated protocol; values above 10,000 nM represented as 10000
Method: T-type calcium channel blocking activity was assayed in human embryonic kidneycells, HEK 293 (Invitrogen), stably transfected with the T-type calcium channel subunits. Briefly, cells were cultured in Dulbecco's modified eagle medium (DMEM) supplemented with 10% fetal bovine serum, 200 U/ml penicillin, and 0.2 mg/mL streptomycin at 37° C. with 5% CO2. At 85% confluency, cells were split with 0.25% trypsin/1 mM EDTA and plated at 10% confluency on glass coverslips. At 12 hours, the medium was replaced, and the cells stably transfected using a standard calcium phosphate protocol and the appropriate calcium channel cDNA's. Fresh DMEM was supplied, and the cells transferred to 28° C./5% CO2.
Standard patch-clamp techniques were employed to identify blockers of T-type currents. Briefly, previously described HEK cell lines stably expressing human α1G, α1H, and α1I T-type channels were used for all the recordings (passage #: 4-20, 37° C., 5% CO2). Whole cell patch clamp experiments were performed using an Axopatch 200B amplifier (Axon Instruments, Burlingame, Calif.) linked to a personal computer equipped with pCLAMP software. Data were analyzed using Clampfit (Axon Instruments) and SigmaPlot 4.0 (Jandel Scientific). To obtain T-type currents, plastic dishes containing semi-confluent cells were positioned on the stage of a ZEISS AXIOVERT S100 microscope after replacing the culture medium with external solution (Table 2). Whole-cell patches were obtained using pipettes (borosilicate glass with filament, O.D.: 1.5 mm, I.D.: 0.86 mm, 10 cm length), fabricated on a SUTTER P-97 puller with resistance values of ˜5 MΩ (Table 3).
T-type currents were reliably obtained by using two voltage protocols: • “non-inactivating,” and • “inactivation.”
Test compounds were dissolved in external solution, 0.1-0.01% DMSO. After ˜10 minutes rest, they were applied by gravity close to the cell using a WPI microfil tubing. The “non-inactivated” pre-pulse was used to examine the resting block of a compound. The “inactivated” protocol was employed to study voltage-dependent block.

[2] = biological target: N-type calcium channel subunits (α1B, α2δ, and β3a) (Homo sapiens, UniProt Q00975); experiment: Block of Cav2.2 channel, whole cell voltage clamp, manual and PatchXpress; assay type: cell-based; settings: Table 5; table follows Assay Example 3 (whole cell voltage clamp / PatchXpress); assay not given
Method in brief: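 Percent block taken as current amplitude ratio with versus without compound, applied in rising doses; IC50 fitted where one cell received multiple doses. Protocol: 50 ms pulses to +20 mV at 0.067 Hz from […] or −90 mV holding; P/n leak subtraction, no junction-potential correction; manual and PatchXpress recordings.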

Sequence of human α1H T-type channels (O95180 whole entry): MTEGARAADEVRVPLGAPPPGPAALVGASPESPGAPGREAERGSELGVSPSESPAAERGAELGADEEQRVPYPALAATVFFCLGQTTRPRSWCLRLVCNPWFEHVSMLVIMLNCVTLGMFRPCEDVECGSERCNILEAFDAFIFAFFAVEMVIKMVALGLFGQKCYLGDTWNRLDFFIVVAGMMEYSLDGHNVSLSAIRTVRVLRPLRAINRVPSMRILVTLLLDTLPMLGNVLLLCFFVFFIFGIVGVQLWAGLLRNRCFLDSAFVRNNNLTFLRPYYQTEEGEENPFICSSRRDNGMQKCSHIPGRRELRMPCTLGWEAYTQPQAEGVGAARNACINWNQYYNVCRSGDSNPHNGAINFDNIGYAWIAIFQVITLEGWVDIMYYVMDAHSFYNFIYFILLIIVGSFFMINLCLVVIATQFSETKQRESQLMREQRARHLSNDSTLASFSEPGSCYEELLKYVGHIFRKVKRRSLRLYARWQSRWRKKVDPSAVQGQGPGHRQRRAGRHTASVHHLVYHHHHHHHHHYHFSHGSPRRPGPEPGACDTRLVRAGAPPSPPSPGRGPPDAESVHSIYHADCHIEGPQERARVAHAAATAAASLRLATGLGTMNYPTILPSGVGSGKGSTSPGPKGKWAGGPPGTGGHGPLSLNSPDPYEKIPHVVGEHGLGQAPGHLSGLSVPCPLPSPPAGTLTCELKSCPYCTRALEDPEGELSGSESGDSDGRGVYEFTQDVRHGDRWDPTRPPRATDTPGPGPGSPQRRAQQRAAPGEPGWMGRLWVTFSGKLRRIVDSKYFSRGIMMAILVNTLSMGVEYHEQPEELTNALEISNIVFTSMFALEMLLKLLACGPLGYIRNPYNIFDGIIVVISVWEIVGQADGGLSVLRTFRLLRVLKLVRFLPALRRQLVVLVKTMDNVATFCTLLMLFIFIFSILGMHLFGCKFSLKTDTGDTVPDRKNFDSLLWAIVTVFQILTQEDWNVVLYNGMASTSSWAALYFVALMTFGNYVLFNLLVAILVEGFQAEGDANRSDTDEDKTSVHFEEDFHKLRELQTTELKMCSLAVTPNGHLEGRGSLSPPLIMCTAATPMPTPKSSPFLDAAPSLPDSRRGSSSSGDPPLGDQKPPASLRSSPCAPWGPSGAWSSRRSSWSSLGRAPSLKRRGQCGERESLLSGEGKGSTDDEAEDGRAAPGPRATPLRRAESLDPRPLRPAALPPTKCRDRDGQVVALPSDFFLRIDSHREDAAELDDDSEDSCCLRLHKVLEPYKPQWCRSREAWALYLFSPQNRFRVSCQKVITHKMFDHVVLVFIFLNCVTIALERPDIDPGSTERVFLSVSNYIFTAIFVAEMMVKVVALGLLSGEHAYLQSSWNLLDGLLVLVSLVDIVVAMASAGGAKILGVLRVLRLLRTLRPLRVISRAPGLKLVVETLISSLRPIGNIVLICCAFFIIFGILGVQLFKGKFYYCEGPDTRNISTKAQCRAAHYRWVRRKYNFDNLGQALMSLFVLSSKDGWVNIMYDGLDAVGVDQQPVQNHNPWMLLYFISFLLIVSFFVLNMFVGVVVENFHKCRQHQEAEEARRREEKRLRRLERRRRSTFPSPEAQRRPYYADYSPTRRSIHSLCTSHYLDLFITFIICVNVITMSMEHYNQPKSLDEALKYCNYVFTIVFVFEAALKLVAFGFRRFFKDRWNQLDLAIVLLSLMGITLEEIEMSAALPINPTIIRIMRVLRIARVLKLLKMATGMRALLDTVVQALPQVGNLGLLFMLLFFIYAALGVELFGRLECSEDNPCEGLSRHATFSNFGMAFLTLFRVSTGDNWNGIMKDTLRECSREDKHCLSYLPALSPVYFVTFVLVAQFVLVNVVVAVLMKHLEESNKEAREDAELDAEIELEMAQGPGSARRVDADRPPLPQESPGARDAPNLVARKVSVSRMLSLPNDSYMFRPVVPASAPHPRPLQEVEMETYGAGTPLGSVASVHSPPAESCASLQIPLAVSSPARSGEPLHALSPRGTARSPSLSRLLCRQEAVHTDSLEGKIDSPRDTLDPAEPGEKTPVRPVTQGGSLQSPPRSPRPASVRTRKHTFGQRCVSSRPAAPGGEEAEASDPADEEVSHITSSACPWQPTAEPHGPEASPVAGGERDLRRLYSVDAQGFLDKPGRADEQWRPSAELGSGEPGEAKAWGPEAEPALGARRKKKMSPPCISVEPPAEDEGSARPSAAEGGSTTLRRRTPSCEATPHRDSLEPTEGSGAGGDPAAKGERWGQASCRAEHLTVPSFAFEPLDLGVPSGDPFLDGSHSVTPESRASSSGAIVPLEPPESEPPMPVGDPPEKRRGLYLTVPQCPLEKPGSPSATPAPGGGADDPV

pIC50 [1] | IC50 [2] [nM] | Molecule
< 5.00 | 1510 | CCN(CC)C(=O)CN[C@H]1CC[C@@H](S(=O)(=O)c2cccc(C(F)(F)F)c2)CC1 [Compound 51, N,N-diethyl-2-((1S,4S)-4-(3-(trifluoromethyl)phenylsulfonyl)cyclohexylamino)acetamide]
< 5.00 | 250 | CC(C)(C)S(=O)(=O)c1ccsc1C(=O)N[C@H]1CC[C@H](CS(=O)(=O)c2cccc(C(F)(F)F)c2)CC1 [Compound 178, 3-(tert-butylsulfonyl)-N-((1R.4R)-4-((3-(trifluoromethyl)phenylsulfonyl)methyl)cyclohexyl)thiophene-2-carboxamide]
< 5.00 | 380 | CC1(S(=O)(=O)c2cccc(C(F)(F)F)c2)CCC(NC(=O)CCC(F)(F)F)CC1 (stereo not drawn) [Compound 5, 4,4,4-trifluoro-N-(4-methyl-4-(3-(trifluoromethyl)phenylsulfonyl)cyclohexyl)butanamide]
< 5.00 | 1470 | COc1cc(C(=O)NC[C@H]2C[C@@H](S(=O)(=O)c3cccc(C(F)(F)F)c3)C2)cc(Cl)n1 [Compound 380, 2-chloro-6-methoxy-N-(((1S,3S)-3-(3-(trifluoromethyl)phenylsulfonyl)cyclobutyl)methyl)isonicotinamide]
< 5.00 | 3760 | Cc1nc(S(=O)(=O)N[C@H]2CC[C@@](F)(S(=O)(=O)c3cccc(C(F)(F)F)c3)CC2)cn1C [Compound 294]
< 5.00 | 1650 | O=C(N[C@H]1CC[C@H](S(=O)(=O)c2cccc(C(F)(F)F)c2)CC1)c1cc(C(F)(F)F)ccn1 [Compound 61, 4-(trifluoromethyl)-N-((1R,4R)-4-(3-(trifluoromethyl)phenylsulfonyl)cyclohexyl)picolinamide]
< 5.00 | 2710 | O=C(N[C@H]1CC[C@H](CS(=O)(=O)c2cccc(C(F)(F)F)c2)CC1)c1cc(F)cc(C(F)(F)F)c1 [Compound 107, 3-fluoro-5-(trifluoromethyl)-N-((1R,4R)-4-((3-(trifluoromethyl)phenylsulfonyl)methyl)cyclohexyl)benzamide]
< 5.00 | 550 | Cn1cc(C(=O)N[C@H]2CC[C@H](S(=O)(=O)c3cccc(C(F)(F)F)c3)CC2)c(C(F)(F)F)n1 [Compound 64, 1-methyl-3-(trifluoromethyl)-N-((1R,4R)-4-(3-(trifluoromethyl)phenylsulfonyl)cyclohexyl)-1H-pyrazole-4-carboxamide]
< 5.00 | 1920 | Cn1nc(C(F)(F)F)cc1C(=O)N[C@H]1CC[C@@H](S(=O)(=O)c2cc(F)cc(C(F)(F)F)c2)CC1 [Compound 321, N-((1S,4S)-4-(3-fluoro-5-(trifluoromethyl)phenylsulfonyl)cyclohexyl)-1-methyl-3-(trifluoromethyl)-1Hpyrazole-5-carboxamide]
< 5.00 | 240 | CC1(NC(=O)c2cc(F)cc(Cl)c2)CCC(F)(S(=O)(=O)c2cccc(C(F)(F)F)c2)CC1 (stereo not drawn) [Compound 93, 3-chloro-5-fluoro-N-(4-fluoro-1-methyl-4-(3-(trifluoromethyl)phenylsulfonyl)cyclohexyl)benzamide]
< 5.00 | 590 | O=C(NC[C@H]1C[C@@H](S(=O)(=O)c2cccc(C(F)(F)F)c2)C1)c1cc(F)cc(Cl)c1 [Compound 381, 3-chloro-5-fluoro-N-(((1S,3S)-3-(3-(trifluoromethyl)phenylsulfonyl)cyclobutyl)methyl)benzamide]

Second part, the molecule before the results:

Molecule | pIC50 [1] | IC50 [2] [nM]
CC([C@H]1C[C@H](NC(=O)c2ccc(F)c(C(F)(F)F)c2)C1)S(=O)(=O)c1cccc(C(F)(F)F)c1 (stereo partly drawn) [Compound 433, 4-fluoro-3-(trifluoromethyl)-N-((1R,3R)-3-((R)-1-(3-(trifluoromethyl)phenylsulfonyl)ethyl)cyclobutyl)benzamide] | < 5.00 | 220
CC1(S(=O)(=O)c2cccc(C(F)(F)F)c2)CCC(NC(=O)c2ccc(C(F)(F)F)cn2)CC1 (stereo not drawn) [Compound 3, N-(4-methyl-4-(3-(trifluoromethyl)phenylsulfonyl)cyclohexyl)-5-(trifluoromethyl) picolinamide] | < 5.00 | 640
CC(C)(C(=O)N[C@H]1CC[C@@](F)(S(=O)(=O)c2cc(F)cc(C(F)(F)F)c2)CC1)S(=O)(=O)c1cccc(C(F)(F)F)c1 [Compound 292, N-((1S,4S)-4-fluoro-4-(3-fluoro-5-(trifluoromethyl)phenylsulfonyl)cyclohexyl)-2-methyl-2-(3-(trifluoromethyl)phenylsulfonyl) propanamide] | < 5.00 | 130
O=C(N[C@H]1CC[C@@](F)(S(=O)(=O)c2cc(F)cc(C(F)(F)F)c2)CC1)c1cc(F)cc(Cl)c1 [Compound 326, 3-chloro-5-fluoro-N-((1S,4S)-4-fluoro-4-(3-fluoro-5-(trifluoromethyl)phenylsulfonyl)cyclohexyl) benzamide] | 5.83 | 330
O=C(CN[C@H]1C[C@H](S(=O)(=O)c2cccc(C(F)(F)F)c2)C1)NC1CCC(F)(F)CC1 [Compound 428, N-(4,4-ditluorocyclohexyl)-2-((1R,3R)-3-(3-(trifluoromethyl)phenylsulfonyl)cyclobutylamino) acetamide] | < 5.00 | 960
O=C(NC[C@H]1C[C@H](S(=O)(=O)c2cccc(C(F)(F)F)c2)C1)c1ccnc(C(F)(F)F)n1 [Compound 362, 2-(trifluoromethyl)-N-(((1R,3R)-3-(3-(trifluoromethyl)phenylsulfonyl)cyclobutyl)methyl)pyrimidine-4-carboxamide] | < 5.00 | 370
CC(C)(CCNC(=O)c1ccc(F)c(C(F)(F)F)c1)S(=O)(=O)c1cccc(C(F)(F)F)c1 [Compound 466, 4-fluoro-N-(3-methyl-3-(3-(trifluoromethyl)phenylsulfonyl)butyl)-3-(trifluoromethyl)benzamide] | 6.26 | –
CC1(NC(=O)c2ccc(OC(F)(F)F)cc2)CCC(S(=O)(=O)c2cccc(C(F)(F)F)c2)CC1 (stereo not drawn) [Compound 315, N-(1-methyl-4-(3-(trifluoromethyl)phenylsulfonyl)cyclohexyl)-4-(trifluoromethoxy)benzamide] | < 5.00 | 1230
6-fluoro-N-((1R,4R)-4-((3- (trifluoromethyl)phenylsulfonyl) methyl)cyclohexyl)-1H- benzo[d]imidazole-2-carboxamide [Compound 110] | < 5.00 | 6020
Cn1cc(C(=O)N[C@H]2CC[C@@H](S(=O)(=O)c3cccc(C(F)(F)F)c3)CC2)c(C(F)(F)F)n1 [Compound 45, 1-methyl-3-(trifluoromethyl)-N-((1S,4S)-4-(3-(trifluoromethyl)phenylsulfonyl)cyclohexyl)-1H-pyrazole-4-carboxamide] | < 5.00 | 1290
COc1cc(C(=O)NC[C@H]2C[C@H](S(=O)(=O)c3cccc(C(F)(F)F)c3)C2)cc(Cl)n1 [Compound 363, 2-chloro-6-methoxy-N-(((1R,3R)-3-(3-(trifluoromethyl)phenylsulfonyl)cyclobutyl)methyl)isonicotinamide] | < 5.00 | 310
O=C(CN[C@H]1CC[C@H](S(=O)(=O)c2cccc(C(F)(F)F)c2)CC1)NCC(F)(F)F [Compound 68, N-(2,2,2-trifluoroethyl)-2-((1R,4R)-4-(3-(trifluoromethyl)phenylsulfonyl)cyclohexylamino)acetamide] | < 5.00 | 1720
COc1cc(F)cc(C(=O)N[C@H]2CC[C@@H](S(=O)(=O)c3cccc(C(F)(F)F)c3)CC2)c1 [Compound 39, 3-fluoro-5-methoxy-N-((1S,4S)-4-(3-(trifluoromethyl)phenylsulfonyl)cyclohexyl)benzamide] | < 5.00 | 410
O=C(CN[C@H]1CC[C@H](CS(=O)(=O)c2cccc(C(F)(F)F)c2)CC1)Nc1ccccn1 [Compound 120, N-(pyridin-2-yl)-2-((1R,4R)-4-((3-(trifluoromethyl)phenylsulfonyl)methyl)cyclohexylamino)acetamide] | < 5.00 | 580
O=C(Nc1ccc(Oc2ccc(Cl)cc2)cc1)[C@H]1C[C@H](S(=O)(=O)c2cccc(C(F)(F)F)c2)C1 [Compound 404, (1R,3R)-N-(4-(4-chlorophenoxy)phenyl)-3-(3-(trifluoromethyl)phenylsulfonyl)cyclobutane carboxamide] | < 5.00 | 3330
